Patent US11021444B2, “Antiviral compounds” (priority 2013, dated 2021)
Where two headings read alike, the source gives them in different places.

Columns and labels:
[1] = system: Respiratory Syncytial Virus (RSV) long strain; assay: microbe, parasite or virus in culture; format: cell-based; conditions: human respiratory syncytial virus, Tables A and B list compounds by EC50 band
In short: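 CPE-reduction format: viability measured colorimetrically with CCK-8 (450 nm, 630 nm reference) after 3-4 h, following 5-day infection at 37 °C, 5% CO2. Cells were HEp-2; inoculum 100 TCID50/well; duplicate 9-point 1/3 series starting at 100 μM or 1 μM.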

[2] = Cytotoxicity Determination (CCK-8, without addition of virus); format: cell-based; conditions: human
In short: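 Cytotoxicity was measured by CCK-8 after 3-4 hours at 37 °C, following 5 days of uninfected exposure at 37 °C and 5% CO2. Compounds ran as duplicate 7-point 1/2 dilutions starting at 100 μM, with 1% final DMSO. HEp-2 cells had been plated at 1,500/well the day before.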

recombinant RSV complex = recombinant RSV complex (Human respiratory syncytial virus A, UniProt P28887); assay: RSV Polymerase Inhibition Assay; format: biochemical
Chain of recombinant RSV complex (P28887 whole entry): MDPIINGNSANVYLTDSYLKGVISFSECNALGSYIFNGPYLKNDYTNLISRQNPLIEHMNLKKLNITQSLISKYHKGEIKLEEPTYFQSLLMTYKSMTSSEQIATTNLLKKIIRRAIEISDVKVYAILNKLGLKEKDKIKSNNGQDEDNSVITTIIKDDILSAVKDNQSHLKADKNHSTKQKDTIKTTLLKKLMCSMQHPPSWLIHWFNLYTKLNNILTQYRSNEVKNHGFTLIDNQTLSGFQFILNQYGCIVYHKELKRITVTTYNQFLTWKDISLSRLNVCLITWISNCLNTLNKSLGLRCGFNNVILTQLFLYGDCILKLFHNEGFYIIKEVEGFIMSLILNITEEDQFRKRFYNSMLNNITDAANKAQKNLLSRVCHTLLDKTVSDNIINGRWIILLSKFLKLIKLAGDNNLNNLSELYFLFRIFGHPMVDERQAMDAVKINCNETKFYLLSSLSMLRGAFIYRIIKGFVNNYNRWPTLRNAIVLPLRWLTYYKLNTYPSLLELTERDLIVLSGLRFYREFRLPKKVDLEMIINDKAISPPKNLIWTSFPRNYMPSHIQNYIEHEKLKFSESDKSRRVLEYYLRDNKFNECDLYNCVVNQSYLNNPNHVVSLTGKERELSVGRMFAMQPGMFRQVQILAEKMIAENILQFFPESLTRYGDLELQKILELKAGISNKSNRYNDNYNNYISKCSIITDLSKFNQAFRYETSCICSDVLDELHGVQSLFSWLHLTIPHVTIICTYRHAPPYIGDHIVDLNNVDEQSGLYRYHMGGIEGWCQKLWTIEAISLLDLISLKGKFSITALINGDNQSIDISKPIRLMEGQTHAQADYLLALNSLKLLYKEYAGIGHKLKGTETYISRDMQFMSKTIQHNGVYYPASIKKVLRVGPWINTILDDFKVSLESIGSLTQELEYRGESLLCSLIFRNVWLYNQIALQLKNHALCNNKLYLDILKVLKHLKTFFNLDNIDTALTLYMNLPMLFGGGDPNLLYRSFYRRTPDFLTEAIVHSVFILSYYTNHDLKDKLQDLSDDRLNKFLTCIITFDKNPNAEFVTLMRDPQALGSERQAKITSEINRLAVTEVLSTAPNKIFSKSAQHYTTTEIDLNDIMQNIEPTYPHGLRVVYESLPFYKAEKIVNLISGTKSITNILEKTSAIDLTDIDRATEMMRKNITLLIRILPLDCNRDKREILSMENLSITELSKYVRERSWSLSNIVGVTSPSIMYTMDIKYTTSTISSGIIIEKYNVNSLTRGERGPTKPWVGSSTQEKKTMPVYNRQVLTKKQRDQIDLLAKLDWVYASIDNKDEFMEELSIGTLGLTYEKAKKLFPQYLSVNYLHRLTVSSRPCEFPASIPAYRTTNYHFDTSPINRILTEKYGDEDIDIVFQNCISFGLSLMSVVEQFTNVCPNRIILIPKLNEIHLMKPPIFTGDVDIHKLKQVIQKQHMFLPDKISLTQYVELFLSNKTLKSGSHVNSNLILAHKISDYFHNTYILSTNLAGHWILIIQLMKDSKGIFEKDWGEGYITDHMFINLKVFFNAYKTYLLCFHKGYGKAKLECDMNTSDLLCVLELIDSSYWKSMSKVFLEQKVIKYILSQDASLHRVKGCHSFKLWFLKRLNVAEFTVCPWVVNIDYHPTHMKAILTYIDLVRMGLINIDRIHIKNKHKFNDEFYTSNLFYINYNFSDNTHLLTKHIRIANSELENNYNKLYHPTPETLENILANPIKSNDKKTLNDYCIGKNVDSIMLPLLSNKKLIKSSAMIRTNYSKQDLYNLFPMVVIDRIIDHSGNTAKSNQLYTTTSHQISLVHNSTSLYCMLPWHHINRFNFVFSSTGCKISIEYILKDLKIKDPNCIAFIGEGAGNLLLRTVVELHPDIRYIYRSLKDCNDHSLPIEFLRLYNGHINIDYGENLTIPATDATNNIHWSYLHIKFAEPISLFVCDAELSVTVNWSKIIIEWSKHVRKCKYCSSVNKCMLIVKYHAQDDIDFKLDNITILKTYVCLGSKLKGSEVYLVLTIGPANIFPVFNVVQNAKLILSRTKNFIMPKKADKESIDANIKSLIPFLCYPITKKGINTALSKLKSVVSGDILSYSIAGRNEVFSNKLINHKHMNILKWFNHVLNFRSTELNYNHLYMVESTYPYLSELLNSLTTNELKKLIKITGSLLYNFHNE
Chain of recombinant RSV complex (P03421 whole entry, further chain): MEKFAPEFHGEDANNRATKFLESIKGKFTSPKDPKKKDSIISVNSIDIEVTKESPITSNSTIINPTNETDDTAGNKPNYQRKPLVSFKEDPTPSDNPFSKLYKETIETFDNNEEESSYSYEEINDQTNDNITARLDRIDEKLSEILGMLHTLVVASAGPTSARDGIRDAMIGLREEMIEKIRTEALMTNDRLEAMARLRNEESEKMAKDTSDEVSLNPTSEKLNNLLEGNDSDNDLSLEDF
In short: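 Inhibition measured as reduced incorporation of radiolabel into RNA products, detected by scintillation counting. Reactions: recombinant RSV complex (10 nM), RNA oligonucleotides, Tris-HCl pH 7.5, 6 mM MgCl2, inhibitor titration, 2 h at 30 °C, EDTA stop.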

RSV replicon = assay: microbe, parasite or virus in culture; format: cell-based; conditions: human respiratory syncytial virus, read-out: EC50, the concentration of the drug required for reducing RSV replicon RNA by 50%
[3] = HEp-2, 120 h, read-out: 50% effective concentration (EC50), HEp-2 cells infected with RSV long strain, 5 days, CCK-8 readout
[4] = 50% cytotoxicity concentration (CC50)
[5] = 120 h, read-out: 50% effective concentration (EC50), HEp-2 cells infected with RSV long strain, 5 days, CCK-8 readout

Structure (SMILES)	EC50 [1, 3] [µM]	CC50 at 5 days [2, 4] [µM]	IC50 (recombinant RSV complex) [µM]	EC50 (RSV replicon) [µM]	CC50 at 5 days ([2]; no virus, 5 days, CCK-8 readout, Tables C and D list compounds by CC50 band) [µM]	EC50 [1, 5] [µM]
COc1cc(C(=O)NCC(O)(c2ccc(OC)c(-c3ccc(F)c(Br)c3)n2)C(F)(F)F)ccc1OCC(N)=O (centres unmarked) [Compound 443]	< 1	10 to 100	< 1	< 1	–	–
COc1cc(C(=O)NCC(F)(CO)c2ccc(OC)c(-c3ccc(F)c(Cl)c3)n2)ccc1OC1CC1 (centres unmarked) [Compound 385]	< 1	10 to 100	< 1	< 1	–	–
COc1cc(C(=O)NCC(O)(c2cc3c(c(-c4ccc(F)c(Cl)c4)n2)NCC3(C)C)C(F)(F)F)ccc1OC1CC1 (centres unmarked) [Compound 335]	< 1	> 100	< 1	< 1	–	–
COc1cc(C(=O)NCC(O)(c2cc(C(C)(C)N)cc(-c3ccc(C#N)cc3)n2)C(F)(F)F)ccc1OC1CC1 (centres unmarked) [Compound 527]	< 1	–	< 1	< 1	10 to 100	–
COc1cc(C(=O)NCC(F)(c2ccc(OC)c(-c3ccc(F)c(Cl)c3)n2)C(F)(F)F)ccc1OC1CCNC1=O (centres unmarked) [Compound 344]	< 1	10 to 100	< 1	< 1	–	–
COc1cc(C(=O)NCC(O)(c2ccc(OC)c(-c3ccc(F)c(Cl)c3)n2)C(C)C)ccc1OCCF (centres unmarked) [Compound 125]	< 1	10 to 100	< 1	< 1	–	–
COc1cc(C(=O)NCC(O)(c2cc(C3(C)CCNC3)cc(-c3ccc(F)cc3)n2)C(F)(F)F)ccc1OC1CC1 (centres unmarked) [Compound 507]	< 1	10 to 100	< 1	< 1	–	–
COc1cc(C(=O)NC[C@@](O)(c2cc(C(C)(C)N)cc(-c3ccc(F)c(Cl)c3)n2)C(F)(F)F)ccc1OCC(N)=O [Compound 547]	< 1	10 to 100	< 1	< 1	–	–
COc1cc(C(=O)NCC(O)(c2cc3c(c(-c4ccc(F)c(Cl)c4)n2)OCC3(C)N)C(F)(F)F)ccc1OC1CC1 (centres unmarked) [Compound 483]	< 1	10 to 100	< 1	< 1	–	–
COc1cc(C(=O)NCC(O)(c2cc(C(C)(N)C(N)=O)cc(-c3ccc(F)c(Cl)c3)n2)C(F)(F)F)ccc1OC1CC1 (centres unmarked) [Compound 536]	< 1	10 to 100	< 1	< 1	–	–
COc1cc(C(=O)NCC(O)(c2ccc(OC)c(-c3ccc(F)c(Cl)c3)n2)C(F)(F)F)ccc1OC1CC(F)C1 (centres unmarked) [Compound 470]	–	> 100	< 1	< 1	–	< 1
CNC(C)(C)c1cc(-c2ccc(F)c(Cl)c2)nc(C(O)(CNC(=O)c2ccc(OC[C@@H](C)O)c(OC)c2)C(F)(F)F)c1 (some centres unmarked) [Compound 486]	< 1	10 to 100	< 1	< 1	–	–
CNC(C)(C)c1cc(-c2ccc(F)c(Cl)c2)nc(C(O)(CNC(=O)c2ccc(OCC(N)=O)c(OC)c2)C(F)(F)F)c1 (centres unmarked) [Compound 487]	< 1	10 to 100	< 1	< 1	–	–
CNC(C)c1cc(-c2ccc(F)c(Cl)c2)nc(C(O)(CNC(=O)c2ccc(OC3CC3)c(OC)c2)C(F)(F)F)c1 (centres unmarked) [Compound 466]	< 1	10 to 100	< 1	< 1	–	–
CC#CC(O)(CNC(=O)c1ccc(OCCF)c(OC)c1)c1ccc(OC)c(-c2ccc(F)c(Cl)c2)n1 (centres unmarked) [Compound 124]	< 1	10 to 100	< 10	< 1	–	–
COc1cc(C(=O)NCC(O)(c2cc(C3(N)COC3)cc(-c3ccc(F)cc3)n2)C(F)(F)F)ccc1OC1CC1 (centres unmarked) [Compound 595]	< 1	10 to 100	< 1	< 1	–	–
COc1cc(C(=O)NCC(O)(c2cc3c(c(-c4ccc(F)cc4)n2)OCC3(C)CN)C(F)(F)F)ccc1OC1CC1 (centres unmarked) [Compound 538]	< 1	10 to 100	< 1	< 1	–	–
COc1cc(C(=O)NCC(O)(c2cc3c(c(-c4ccc(F)cc4)n2)OCC3(C)N)C(F)(F)F)cc2cccnc12 (centres unmarked) [Compound 635]	< 1	10 to 100	< 1	< 1	–	–
COc1cc(C(=O)NCC(=O)c2cc3c(c(-c4ccc(F)c(Cl)c4)n2)OCCC3)ccc1OCCO [Compound 304]	< 1	> 100	< 1	< 1	–	–

Structure (SMILES)	EC50 [1, 3] [µM]	CC50 at 5 days [2, 4] [µM]	IC50 (recombinant RSV complex) [µM]	EC50 (RSV replicon) [µM]	CC50 at 5 days ([2]; no virus, 5 days, CCK-8 readout, Tables C and D list compounds by CC50 band) [µM]	EC50 [1, 5] [µM]
COc1ccc(C(O)(CNC(=O)c2ccc(OCCO)c(Cl)c2)C2CC2)nc1-c1ccc(F)c(Cl)c1 (centres unmarked) [Compound 425]	< 1	10 to 100	< 1	< 1	–	–
COc1cc(C(=O)NCC(O)(c2cc(C(C)(C)N)cc(-c3ccnc(Cl)c3)n2)C(F)(F)F)ccc1OC1CC1 (centres unmarked) [Compound 558]	< 1	10 to 100	< 1	< 1	–	–
COc1cc(C(=O)NCC(O)(c2cc(C(C)(C)N)cc(-c3ccc(F)c(Cl)c3)n2)C(F)(F)F)ccc1OCC(C)(C)O (centres unmarked) [Compound 396]	< 1	10 to 100	< 1	< 1	–	–
COc1cc(C(=O)NCC(O)(c2cc(C(C)(N)CO)cc(-c3ccc(F)c(Cl)c3)n2)C(F)(F)F)ccc1OC1CC1 (centres unmarked) [Compound 533]	< 1	10 to 100	< 1	< 1	–	–
COc1cc(C(=O)NCC(=O)c2cc3c(c(-c4ccc(F)c(Cl)c4)n2)OCC3(C)C)ccc1OCCO [Compound 140]	–	10 to 100	< 1	< 1	–	< 1
COc1cc(C(=O)NCC(O)(c2cc(C(C)(C)N)cc(-c3ccc(F)c(Cl)c3)n2)C(F)(F)F)ccc1OC[C@@H](C)O (some centres unmarked) [Compound 317]	< 1	10 to 100	< 1	< 1	–	–
COc1cc(C(=O)NCC(F)(c2ccc(OC)c(-c3ccc(F)c(Cl)c3)n2)C2CC2)ccc1OCCO (centres unmarked) [Compound 366]	< 1	10 to 100	< 1	< 1	–	–
COc1cc(C(=O)NCC(O)(c2cc(C(C)(C)NC3CCC3)cc(-c3ccc(F)c(Cl)c3)n2)C(F)(F)F)ccc1OC1CC1 (centres unmarked) [Compound 575]	< 1	10 to 100	< 1	< 1	–	–
COc1cc(C(=O)NCC(O)(c2cc3c(c(-c4ccc(Cl)cc4)n2)OCC3(C)N)C(F)(F)F)ccc1OCCO (centres unmarked) [Compound 640]	–	10 to 100	< 1	< 1	–	< 1
COc1cc(C(=O)NCC(O)(c2cc([C@@]3(C)CCN3)cc(-c3ccc(F)c(Cl)c3)n2)C(F)(F)F)ccc1OC1CC1 (some centres unmarked) [Compound 563]	< 1	10 to 100	< 1	< 1	–	–
COc1cc(C(=O)NCC(O)(c2cc(CN)cc(-c3ccc(F)cc3)n2)C(F)(F)F)ccc1OC1CC1 (centres unmarked) [Compound 361]	< 1	10 to 100	< 1	< 1	–	–
COc1cc(C(=O)NCC(O)(c2ccc(OC)c(-c3ccc(F)c(Cl)c3)n2)C(C)O)ccc1OC1CC1 (centres unmarked) [Compound 454]	< 1	10 to 100	< 1	< 1	–	–
COc1cc(C(=O)NCC(F)(c2ccc(OC)c(-c3ccc(F)c(Cl)c3)n2)C(F)(F)F)ccc1OCC(N)=O (centres unmarked) [Compound 343]	< 1	10 to 100	< 1	< 1	–	–
COc1cc(C(=O)NCC(C)(O)c2ccc(OC)c(-c3ccc(F)c(Br)c3)n2)ccc1OCCF (racemic) [Compound 118]	< 1	10 to 100	< 1	< 1	–	–
COc1cc(C(=O)NCC(O)(c2cc(C(C)(C)NCCO)cc(-c3ccc(F)c(Cl)c3)n2)C(F)(F)F)ccc1OC1CC1 (centres unmarked) [Compound 502]	< 1	10 to 100	< 1	< 1	–	–
COc1cc(C(=O)NCC(O)(c2ccc(OC)c(-c3ccc(F)c(Cl)c3)n2)C2CC2)ccc1Cn1ccnc1 (centres unmarked) [Compound 438]	1 to 50	10 to 100	< 10	1 to 50	–	–
COc1cc(C(=O)NCC(O)(c2ccc(OC)c(-c3ccc(F)c(Cl)c3)n2)C2CC2)ccc1Cn1cncn1 (centres unmarked) [Compound 434]	< 1	10 to 100	< 1	< 1	–	–
COc1cc(C(=O)NCC(O)(c2ccc(OC)c(-c3ccc(F)c(Cl)c3)n2)C(F)(F)F)ccc1OC1(CF)CC1 (centres unmarked) [Compound 248]	< 1	> 100	< 1	< 1	–	–
COc1cc(C(=O)NC[C@](O)(c2cc(C(C)(C)N)cc(-c3ccc(F)c(Cl)c3)n2)C(F)(F)F)ccc1OCC(N)=O [Compound 548]	< 1	10 to 100	< 1	< 1	–	–
